Results reported in patent US8273701B2, “Method for diagnosing non-small cell lung carcinoma” (Trustees of Dartmouth College, priority 2005, dated 2012).

Key:
HOP62 [1] = conditions: HOP62 transfected with Gli1 (efficiency approximately 25%) compared with HOP62 expressing an insertless expression vector
Text: Results from DTP analysis of the NCI-60 screen were independently validated with each cell line to determine which NSCLC cell lines required Hedgehog activity to proliferate.

786-0 = assay: NCI-60 panel screen, growth inhibition; assay type: cell-based, human; conditions: Renal
Text: (§1) The NCI-60 panel of cell lines includes cells derived from melanoma, leukemia, and cancers of the lung, central nervous system, kidney, ovary, colon, breast and prostate. Advantageously, the NCI-60 panel has been screened with a plurality of compounds with the drug concentration resulting in 50% growth inhibition (GI50 determined for each cell line, so that a distinct “fingerprint” signature has been created for each small-molecule tested. Further, DNA microarray analyses have been performed on the NCI-60 panel, allowing for gene expression profile comparisons between drug-sensitive cell lines and drug-insensitive cell lines in response to a particular agent.
(§2) Results from the NCI-60 panel screen highlighted the important role that the Hedgehog pathway plays in breast and prostate cancer (Table 1). […] These findings underscore the broad importance of Hedgehog signaling in carcinogenesis.

A549 = assay: NCI-60 panel screen, growth inhibition; assay type: cell-based, human; conditions: NSCLC
Text: as §1, §2

ACHN = assay: NCI-60 panel screen, growth inhibition; assay type: cell-based, human; conditions: Renal
Text: as §1, §2

BT-549 = assay: NCI-60 panel screen, growth inhibition; assay type: cell-based, human; conditions: Breast
Text: as §1, §2

CAKI-1 = assay: NCI-60 panel screen, growth inhibition; assay type: cell-based, human; conditions: Renal
Text: as §1, §2

COLO 205 = assay: NCI-60 panel screen, growth inhibition; assay type: cell-based, human; conditions: Colon
Text: as §1, §2

DU-145 = assay: NCI-60 panel screen, growth inhibition; assay type: cell-based, human; conditions: Prostate
Text: as §1, §2

EKVX = assay: NCI-60 panel screen, growth inhibition; assay type: cell-based, human; conditions: NSCLC
Text: as §1, §2

HCT-116 = assay: NCI-60 panel screen, growth inhibition; assay type: cell-based, human; conditions: Colon
Text: as §1, §2

HCT-15 = assay: NCI-60 panel screen, growth inhibition; assay type: cell-based, human; conditions: Colon
Text: as §1, §2

HL-60 = assay: NCI-60 panel screen, growth inhibition; assay type: cell-based, human; conditions: Leukemia
Text: as §1, §2

HOP62 [2] = assay: NCI-60 panel screen, growth inhibition; assay type: cell-based, human; conditions: NSCLC
Text: as §1, §2

HS 578T = assay: NCI-60 panel screen, growth inhibition; assay type: cell-based, human; conditions: Breast
Text: as §1, §2

HT29 = assay: NCI-60 panel screen, growth inhibition; assay type: cell-based, human; conditions: Colon
Text: as §1, §2

IGROV1 = assay: NCI-60 panel screen, growth inhibition; assay type: cell-based, human; conditions: Ovarian
Text: as §1, §2

K-562 = assay: NCI-60 panel screen, growth inhibition; assay type: cell-based, human; conditions: Leukemia
Text: as §1, §2

KM12 = assay: NCI-60 panel screen, growth inhibition; assay type: cell-based, human; conditions: Colon
Text: as §1, §2

LOX IMVI = assay: NCI-60 panel screen, growth inhibition; assay type: cell-based, human; conditions: Melanoma
Text: as §1, §2

MCF7 = assay: NCI-60 panel screen, growth inhibition; assay type: cell-based, human; conditions: Breast
Text: as §1, §2

MDA MB-435 = assay: NCI-60 panel screen, growth inhibition; assay type: cell-based, human; conditions: Breast
Text: as §1, §2

MDA-MB-231/ATCC = assay: NCI-60 panel screen, growth inhibition; assay type: cell-based, human; conditions: Breast
Text: as §1, §2

MOLT-4 = assay: NCI-60 panel screen, growth inhibition; assay type: cell-based, human; conditions: Leukemia
Text: as §1, §2

NCI-H226 = assay: NCI-60 panel screen, growth inhibition; assay type: cell-based, human; conditions: NSCLC
Text: as §1, §2

NCI-H23 = assay: NCI-60 panel screen, growth inhibition; assay type: cell-based, human; conditions: NSCLC
Text: as §1, §2

NCI-H322M = assay: NCI-60 panel screen, growth inhibition; assay type: cell-based, human; conditions: NSCLC
Text: as §1, §2

NCI-H460 = assay: NCI-60 panel screen, growth inhibition; assay type: cell-based, human; conditions: NSCLC
Text: as §1, §2

NCI-H522 = assay: NCI-60 panel screen, growth inhibition; assay type: cell-based, human; conditions: NSCLC
Text: as §1, §2

NCI/ADR-RES = assay: NCI-60 panel screen, growth inhibition; assay type: cell-based, human; conditions: Breast
Text: as §1, §2

OVCAR-5 = assay: NCI-60 panel screen, growth inhibition; assay type: cell-based, human; conditions: Ovarian
Text: as §1, §2

OVCAR-8 = assay: NCI-60 panel screen, growth inhibition; assay type: cell-based, human; conditions: Ovarian
Text: as §1, §2

PC-3 = assay: NCI-60 panel screen, growth inhibition; assay type: cell-based, human; conditions: Prostate
Text: as §1, §2

RPMI-8226 = assay: NCI-60 panel screen, growth inhibition; assay type: cell-based, human; conditions: Leukemia
Text: as §1, §2

RXF 393 = assay: NCI-60 panel screen, growth inhibition; assay type: cell-based, human; conditions: Renal
Text: as §1, §2

SF-268 = assay: NCI-60 panel screen, growth inhibition; assay type: cell-based, human; conditions: Central Nervous System
Text: as §1, §2

SF-295 = assay: NCI-60 panel screen, growth inhibition; assay type: cell-based, human; conditions: Central Nervous System
Text: as §1, §2

SF-539 = assay: NCI-60 panel screen, growth inhibition; assay type: cell-based, human; conditions: Central Nervous System
Text: as §1, §2

SK-MEL-28 = assay: NCI-60 panel screen, growth inhibition; assay type: cell-based, human; conditions: Melanoma
Text: as §1, §2

SK-MEL-2 = assay: NCI-60 panel screen, growth inhibition; assay type: cell-based, human; conditions: Melanoma
Text: as §1, §2

SK-MEL-5 = assay: NCI-60 panel screen, growth inhibition; assay type: cell-based, human; conditions: Melanoma
Text: as §1, §2

SN12C = assay: NCI-60 panel screen, growth inhibition; assay type: cell-based, human; conditions: Renal
Text: as §1, §2

SNB-19 = assay: NCI-60 panel screen, growth inhibition; assay type: cell-based, human; conditions: Central Nervous System
Text: as §1, §2

SNB-75 = assay: NCI-60 panel screen, growth inhibition; assay type: cell-based, human; conditions: Central Nervous System
Text: as §1, §2

SR = assay: NCI-60 panel screen, growth inhibition; assay type: cell-based, human; conditions: Leukemia
Text: as §1, §2

SW-620 = assay: NCI-60 panel screen, growth inhibition; assay type: cell-based, human; conditions: Colon
Text: as §1, §2

TK-10 = assay: NCI-60 panel screen, growth inhibition; assay type: cell-based, human; conditions: Renal
Text: as §1, §2

U251 = assay: NCI-60 panel screen, growth inhibition; assay type: cell-based, human; conditions: Central Nervous System
Text: as §1, §2

UACC-257 = assay: NCI-60 panel screen, growth inhibition; assay type: cell-based, human; conditions: Melanoma
Text: as §1, §2

UACC-62 = assay: NCI-60 panel screen, growth inhibition; assay type: cell-based, human; conditions: Melanoma
Text: as §1, §2

UO-31 = assay: NCI-60 panel screen, growth inhibition; assay type: cell-based, human; conditions: Renal
Text: as §1, §2

Gli1 = Gli1 knock-down by siRNA in A549 cells; assay type: cell-based, human; conditions: A549 cells transfected with siRNA

CC1=C2C[C@H]3[C@@H](CC=C4C[C@@H](O)CC[C@@]43C)[C@@H]2CC[C@]12O[C@@H]1C[C@H](C)CN[C@H]1[C@H]2C [Cyclopamine, cyclopamine] was tested, and the “Growth inhibitory activity in Gli1-transfected cells versus insertless expression vector” value (HOP62 [1]) was “less growth inhibitory activity”.

For Cc1nn(-c2ccccc2)c(C)c1/C=N/N1CCN(Cc2ccccc2)CC1 [SANT1], the “−log [GI50]” value (786-0) was 4.64, the “−log [GI50]” value (A549) was 4.00 and the “−log [GI50]” value (ACHN) was 4.28. For the same compound, the “−log [GI50]” value (BT-549) was 4.32, the “−log [GI50]” value (CAKI-1) was 4.00 and the “−log [GI50]” value (COLO 205) was 4.39. For the same compound, the “−log [GI50]” value (DU-145) was 4.02, the “−log [GI50]” value (EKVX) was 4.00 and the “−log [GI50]” value (HCT-116) was 4.55. The “−log [GI50]” value (HCT-15) was 4.52, the “−log [GI50]” value (HL-60) was 4.54 and the “−log [GI50]” value (HOP62 [2]) was 4.79. The “−log [GI50]” value (HS 578T) was 4.00, the “−log [GI50]” value (HT29) was 4.37 and the “−log [GI50]” value (IGROV1) was 5.08. For the same compound, the “−log [GI50]” value (K-562) was 4.51, the “−log [GI50]” value (KM12) was 4.50 and the “−log [GI50]” value (LOX IMVI) was 4.36. The “−log [GI50]” value (MCF7) was 4.51, the “−log [GI50]” value (MDA MB-435) was 4.00 and the “−log [GI50]” value (MDA-MB-231/ATCC) was 4.65. The “−log [GI50]” value (MOLT-4) was 4.57, the “−log [GI50]” value (NCI-H226) was 4.56 and the “−log [GI50]” value (NCI-H23) was 4.38. For the same compound, the “−log [GI50]” value (NCI-H322M) was 5.08, the “−log [GI50]” value (NCI-H460) was 4.47 and the “−log [GI50]” value (NCI-H522) was 4.11. The “−log [GI50]” value (NCI/ADR-RES) was 4.30, the “−log [GI50]” value (OVCAR-5) was 4.00 and the “−log [GI50]” value (OVCAR-8) was 4.00. For the same compound, the “−log [GI50]” value (PC-3) was 4.60, the “−log [GI50]” value (RPMI-8226) was 4.70 and the “−log [GI50]” value (RXF 393) was 4.00. For the same compound, the “−log [GI50]” value (SF-268) was 4.42, the “−log [GI50]” value (SF-295) was 4.00 and the “−log [GI50]” value (SF-539) was 4.12. For the same compound, the “−log [GI50]” value (SK-MEL-28) was 4.09, the “−log [GI50]” value (SK-MEL-2) was 4.22 and the “−log [GI50]” value (SK-MEL-5) was 4.73. The “−log [GI50]” value (SN12C) was 4.00, the “−log [GI50]” value (SNB-19) was 4.00 and the “−log [GI50]” value (SNB-75) was 4.00. The “−log [GI50]” value (SR) was 4.86, the “−log [GI50]” value (SW-620) was 4.00 and the “−log [GI50]” value (TK-10) was 4.54. The “−log [GI50]” value (U251) was 4.17, the “−log [GI50]” value (UACC-257) was 4.20 and the “−log [GI50]” value (UACC-62) was 4.47. For the same compound, the “−log [GI50]” value (UO-31) was 4.18.

With “SEQ ID NO:9: siRNA having the desired Gli1 knock-down activity (Sanchez, et al. (2004)) (AACUCCACAGGCAUACAGGAU; chemistry not given here)” the “Reduction of Gli1 levels” value (Gli1) was “approximately 90%”.
